In ChEMBL document CHEMBL1828514, “Comparison of the reactivity of antimalarial 1,2,4,5-tetraoxanes with 1,2,4-trioxolanes in the presence of ferrous iron salts, heme, and ferrous iron salts/phosphatidylcholine” (J Med Chem, 2011) one finds Activity, Stability and IC50 data, which are given here for ten compounds.

Usually IC50 stands for the concentration needed to halve the response being measured.

Structures are written as SMILES. Activity calls are given as the source filed them. No cut-off for these calls is given here.

A short description of data set [1]: Induction of formation of chlorin-type adduct from reaction with iron(2) tetraphenylporphyrin. The data set is classed as physicochemical.
The nature of data set [2]: Induction of 2-Linoleoyl-1-palmitoyl-sn-phosphotidylcholine peroxidation in the presence of Ferrous sulphate after 24 hrs by LC/MS analysis. The data set is classed as functional.
Data set [3] is described as follows: Induction of oxyl radical formation from reaction with ferrous salt in the presence of 2,2,6,6-tetramethyl-1-piperidine-1-oxyl after 24 hrs by spin-trapping and LC/MS analysis. The data set is classed as physicochemical.
The nature of data set [4]: Chemical stability of the compound assessed as iron-mediated decomposition after 24 hrs by LC/MS analysis. The data set is classed as physicochemical.
Data set [5] is described as follows: Induction of formation of Manganese-TPC adduct from reaction with manganese(2) tetraphenylporphyrin. The data set is classed as physicochemical.
Data set [6] can be described thus: Induction of TEMPO adduct formation after 24 hrs in presence of 2,2,6,6-tetramethyl-1-piperidine-1-oxyl and ferrous sulfate by LC/MS analysis.
A short description of data set [7]: Induction of formation of demetalated adduct from reaction with iron(2) tetraphenylporphyrin. The data set is classed as physicochemical.
Data set [8] can be described thus: Induction of alkylated heme adduct formation from reaction with ferrous heme by LC/MS analysis.
The subject of the next data set is Plasmodium falciparum. Put plainly: Antimalarial activity against Plasmodium falciparum 3D7 assessed as inhibition of [3H]hypoxanthine incorporation after 48 hrs by liquid scintillation counting. The data set is classed as functional, organism-based.
Data set [9] in a line: Induction of oxyl radical formation from reaction with ferrous heme assessed as decrease in heme concentration by HPLC analysis relative to control. The data set is classed as physicochemical. Further details: scale not given: the % may be the effect or the level left.
Data set [10] is described as follows: Induction of 2-Linoleoyl-1-palmitoyl-sn-phosphotidylcholine peroxidation in the presence of ferrous sulphate after 24 hrs by ESI/MS analysis. The data set is classed as functional.
Data set [11] is described as follows: Induction of oxyl radical formation from reaction with iron(2) gluconate after 12 hrs by LC/MS analysis. The data set is classed as physicochemical.

On to `CC(CN1CCNCC1)C(=O)CC1CCC2(CC1)OOC1(OO2)C2CC3CC(C2)CC1C3` (centres undefined), for which the Activity result in data set [1] is recorded as “Active”; in [3], “Active”; in [5], “Active”; in [7], “Active”; in data set [9], 53%. Moreover, the result in data set [2], in data set [6] and in data set [8] was Active. Besides, the Stability entry in data set [4] is recorded as “Unstable”. In addition, the concentration for half-maximal inhibition (IC50) in the data set with Plasmodium falciparum turned out to be 1.4 nM.
For `CC(C)(N)CNC(=O)C[C@H]1CC[C@]2(CC1)OO[C@]1(O2)C2CC3CC(C2)CC1C3` [OZ277], in data set [3], the outcome was Active.
With `O=C(CC1CCC2(CC1)OOC1(OO2)C2CC3CC(C2)CC1C3)N1CCN(C2CCNCC2)CC1` (centres undefined), the result in [2] and in data set [8] was Active. Besides, the Stability entry in data set [4] is “Unstable”. The IC50 in the data set on Plasmodium falciparum was 0.4 nM. Also, the Activity in data set [9] came to 38%.
Take `C[C@@H]1CC[C@H]2[C@@H](C)C(=O)O[C@@H]3O[C@@]4(C)CC[C@@H]1[C@]32OO4` [ARTEMISININ]: the outcome in data set [10] was inactive. The Activity in [9] is reported as 70%.
For the compound `O=C(CC1CCC2(CC1)OOC1(OO2)C2CC3CC(C2)CC1C3)NCc1ccc(F)cc1` (centres undefined), the result in data set [10] was Active. Moreover, the result in data set [11] was Active. Moreover, the IC50 in the data set with Plasmodium falciparum was 3 nM.
As to `CCOC(=O)CC1CCC2(CC1)OOC1(OO2)C2CC3CC(C2)CC1C3` (centres undefined), the result in data set [6] was Active. For the same compound, the IC50 in the data set with Plasmodium falciparum was 10 nM.
Regarding `O=C(CC1CCC2(CC1)OOC1(OO2)C2CC3CC(C2)CC1C3)N1CCOCC1` (centres undefined), the result in data set [8] was Active. Further, in the data set with Plasmodium falciparum, the IC50 came out at 5.2 nM.
Consider `O=C(CC1CCC2(CC1)OOC1(OO2)C2CC3CC(C2)CC1C3)NC1CC1` (centres undefined), for which the outcome in data set [6] was Active. The IC50 with Plasmodium falciparum was found to be 2.3 nM.
`CC(C)CN1CCN(C(=O)C[C@H]2CC[C@]3(CC2)OO[C@]2(O3)C3CC4CC(C3)CC2C4)CC1`: the outcome in data set [2] and in data set [8] was Active. Further, the Stability result in [4] is “Unstable”. For the same compound, the IC50 with Plasmodium falciparum came out at 2.1 nM.
Take `CN1CCN(C2CCN(C(=O)C[C@H]3CC[C@]4(CC3)OO[C@]3(O4)C4CC5CC(C4)CC3C5)CC2)CC1`: the outcome in data set [2] was Active. The Stability result in [4] is recorded as “Unstable”. The concentration for half-maximal inhibition (IC50) in the data set on Plasmodium falciparum stood at 0.5 nM.
